The results in this text go back to patent publication US4500526A, “Cephalosporin derivatives” (Bristol-Myers Company, priority 1983, dated 1985).

Molecules are shown by their SMILES. In brackets after ≈: the same amount, converted by molar mass. Read-outs that look alike come from different tables or passages of the source.

Data set [1] deals with Penicillinsensitive S. aureus (5 strains). As to the kind of experiment: MIC, two-fold serial agar dilution, group (G+)-Ia. The class given is cell-based. The note with it: Staphylococcus aureus; (G+)-Ia, 5 strains, Mueller-Hinton agar; read-out: Geometric Mean of MIC. In outline:
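Two-fold serial agar dilution in Mueller-Hinton agar. Compound weights corrected for purity. Group comprises 5 penicillin-sensitive S. aureus strains.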

For data set [2], the system named is Cephalothinsensitive E. coli (2 strains), Kl. pneumoniae (1 strain) and Pr. mirabilis (2 strains). Put plainly: MIC, two-fold serial agar dilution, group (G-)-Ia. The class given is cell-based. The conditions noted are these: 5 strains, Mueller-Hinton agar, read-out: Geometric Mean of MIC. The method, boiled down:
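Mueller-Hinton agar, two-fold serial dilution; test compound weights corrected for purity so MICs reflect actual compound content.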
On the technique in general: In agar dilution the substance is mixed into plates at graded concentrations.

The test system of data set [3] is Cephalothinresistant E. coli (3 strains) and Kl. pneumoniae (3 strains). Put plainly: MIC, two-fold serial agar dilution, group (G-)-Ib. The class given is cell-based. The conditions noted are these: Escherichia coli, read-out: Geometric Mean of MIC. In outline:
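MICs by two-fold serial agar dilution in Mueller-Hinton agar against cephalothin-resistant E. coli and Klebsiella pneumoniae strains. Compound weights were corrected for purity.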

Data set [4] in a line: Mouse blood levels after single intramuscular injection. The note with it: in vivo, im, 20 mg/kg. The class given is in vivo, mice. The method, boiled down:
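Mice received a single intramuscular dose of 20 mg/kg in 0.1M phosphate buffer, pH 7. Orbital sinus blood was sampled over time and bioassayed on Nutrient Agar (pH 6.6) with E. coli Ess-22-31; t1/2 and AUC were derived from the blood levels.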

In data set [5] the test system is H. influenzae (3) (ampicillin resistant). Put plainly: In vitro activity against fastidious bacteria, two-fold serial agar dilution. The class given is cell-based. The note with it: Haemophilus influenzae, read-out: Geometric Mean of MIC. As for the experimental part: (§1) The in vitro activity of some of the preferred compounds against 30 strains of fastidious bacteria was determined by the two-fold serial agar dilution method in Gonococcus agar (GC agar), and the results are shown in Table 3.

Another data set deals with N. gonorrhoeae (5). The data set is described as above. It is filed as cell-based. The conditions noted are these: Neisseria gonorrhoeae, read-out: Geometric Mean of MIC. On the procedure: as §1
For a further data set, the system named is N. meningitidis (5). The description is as above. It is filed as cell-based. The note with it: Neisseria meningitidis, read-out: Geometric Mean of MIC. On the procedure:
as §1

For a further data set, the system named is S. pneumoniae (5). The description is as above. The class given is cell-based. The note with it: Streptococcus pneumoniae; GC agar; read-out: Geometric Mean of MIC. As for the experimental part: as §1
The next data set deals with S. pyogenes (5 strains). The data set is described as above. The conditions noted are these: Streptococcus pyogenes; GC agar; read-out: Geometric Mean of MIC. The class given is cell-based. As for the experimental part:
as §1

The next data set can be described thus: Solubility in water. The class given is physicochemical. As for the experimental part: A more soluble form of Compound Ia was prepared as follows. […] Powdered NaHCO3 was added in small portions, with stirring. A clear solution was obtained after adding 5.0 mg of NaHCO3 and the indicated pH then was 6.0. After filtration through a Millipore membrane filter to remove they insoluble impurities, the filtrate was lyophilized to give 245 mg of a water-soluble form of Compound Ia, mp 165° C. Estimated purity 80% (by HPLC). The sample was completely soluble in water to give a 25% solution.
To a stirred solution of diphenylmethyl 7-[(Z)-2-t-butoxycarbonylprop-2-oxyimino)-2-(2-tritylaminothiazol-4-yl)-acetamido]-3-iodomethyl-3-cephem-4-carboxylate [VIId'] (700 mg, 0.66 mmole) in 3 mL of DMSO, was added thiazolo[4,5-c]pyridine (115 mg, 0.84 mmole) in two portions and the mixture was stirred for 1.25 hours at room temperature. The reaction mixture was diluted with ether (150 mL) to separate an oily product, which was washed again with ether. The residue was dissolved in methylene chloride (100 mL) and the solution was filtered and evaporated to give 655 mg of the blocked product [XIIId']. The yellow product (630 mg) was suspended in anisole (1 mL) and, with ice cooling, was treated with a mixture of TFA (10 mL) and water (0.5 mL). The mixture was stirred for 20 minutes with ice cooling and then for 1 hour at room temperature. After evaporation of the mixture below 30° C., the residue was triturated with isopropyl ether (50 mL). The precipitate was collected by filtration, and dried under reduced pressure to obtain 485 mg of crude title compound as a yellow powder. The crude product (480 mg) was dissolved in a small volume of aqueous sodium bicarbonate and purified by HPLC (Column, Lichrosorb RP-18; mobile phase, water). The desired fractions were combined (ca. 90 mL) and acidified to pH 2 with dilute hydrochloric acid. The acidified solution was passed through an HP-20 column (50 mL) and washed with water (200 mL). […] Mp >180° C. (dec.).
The free acid of Compound Id (100 mg) was dissolved in a small volume of aqueous sodium bicarbonate and subjected to HPLC (Column, Lichrosorb RP-18; mobile phase, water). The eluate containing the desired product which was concentrated and lyophilized to give 30 mg of the sodium salt of Id as a pale yellow amorphous powder, which was more than 25% soluble in water. Mp 178°-196° C. (dec.).
A solution of diphenylmethyl 7-[(Z)-(2-t-butoxycarbonylprop-2-oxyimino)-2-(2-tritylaminothiazol-4-yl)acetamido]-3-iodomethyl-3-cephem-4-carboxylate [VIId'] (9.0 g, 8.5 mmoles) and thiazolo[4,5-c]pyridine (1.5 g, 11 mmoles) in dimethylsulfoxide (38 mL) was stirred at room temperature for 1 hour. The reaction mixture was poured into ether (500 mL) and, after decantation, the oily precipitate was dissolved in chloroform (300 mL). […]

Usually AUC stands for concentration integrated over time. Usually half-life stands for how long it takes for the measured level to halve. The low end stands for rapid decline, the high end for slow decline. A word on the solubility: it is the dissolved amount per volume that the medium holds.

For `CC(C)(O/N=C(\C(=O)NC1C(=O)N2C(C(=O)[O-])=C(C[n+]3ccc4scnc4c3)CS[C@H]12)c1csc(N)n1)C(=O)O` (stereo partly shown) [Id, 7-[(Z)-2-(2-Aminothiazol-4-yl)-2-(2-carboxyprop-2-oxyimino)-acetamido]-3-{(5-thiazolo[4,5-c]pyridinio)methyl}-3-cephem-4-carboxylate], in data set [1], the MIC was determined as 4.4 µg/mL (≈ 7.29 µM). The MIC in data set [2] was determined as 0.04 µg/mL (≈ 0.0663 µM). Besides, in [3], the MIC was determined as 0.71 µg/mL (≈ 1.18 µM). In [4], this compound returned an AUC of 9500 ng·h/mL, a concentration at 10 min of 16000 ng/mL, a concentration at 20 min of 14000 ng/mL and a concentration at 0.5 h of 11000 ng/mL. Also, in data set [4], the concentration at 40 min was 6100 ng/mL, the concentration at 50 min turned out to be 3900 ng/mL, the concentration at 1 h worked out at 2500 ng/mL and the concentration at 1.5 h was 720 ng/mL. In addition, in [4], the concentration at 2 h is less than 200 ng/mL and the half-life is 16 min. Further, the MIC in data set [5] amounted to 0.1 µg/mL (≈ 0.166 µM). Further, the MIC in the data set with N. gonorrhoeae (5) was found to be 0.1 µg/mL (≈ 0.166 µM). The MIC with N. meningitidis (5) came to 0.1 µg/mL (≈ 0.166 µM). Besides, the MIC in the data set with S. pneumoniae (5) worked out at 0.2 µg/mL (≈ 0.331 µM). Besides, the MIC with S. pyogenes (5 strains) was found to be 0.2 µg/mL (≈ 0.331 µM). The solubility in water result in the data set “Solubility in water” (free acid) was “slightly soluble in water”. Also, the solubility in “Solubility in water” (water, sodium salt) is greater than 250 mg/mL.
For `CO/N=C(\C(=O)NC1C(=O)N2C(C(=O)[O-])=C(C[n+]3ccc4scnc4c3)CS[C@H]12)c1csc(N)n1` (stereo partly shown) [Ia, 7-[(Z)-2-(2-Aminothiazol-4-yl)-2-methoxyiminoacetamido]-3-{(5-thiazolo[4,5-c]pyridinio)methyl}-3-cephem-4-carboxylate], the MIC in data set [1] stood at 0.42 µg/mL (≈ 0.79 µM). For the same compound, the MIC in data set [2] stood at 0.02 µg/mL (≈ 0.0376 µM). Further, the MIC in data set [3] came to 0.16 µg/mL (≈ 0.301 µM). In data set [4], the AUC is 15000 ng·h/mL, the concentration at 10 min stood at 20000 ng/mL, the concentration at 20 min is 15000 ng/mL and the concentration at 0.5 h was determined as 11000 ng/mL. In data set [4], this compound gave a concentration at 40 min of 8600 ng/mL, a concentration at 50 min of 6900 ng/mL, a concentration at 1 h of 6500 ng/mL and a concentration at 1.5 h of 3100 ng/mL. In [4], the concentration at 2 h stood at 2100 ng/mL and the half-life was determined as 35 min. In addition, in data set [5] (GC agar, ampicillin resistant, 3 strains), the MIC came out at 0.0125 µg/mL (≈ 0.0235 µM). Moreover, the MIC with N. gonorrhoeae (5) (GC agar) was determined as 0.0125 µg/mL (≈ 0.0235 µM). Moreover, the MIC with N. meningitidis (5) (GC agar) is 0.0125 µg/mL (≈ 0.0235 µM). In the data set on S. pneumoniae (5), the MIC worked out at 0.0125 µg/mL (≈ 0.0235 µM). In the data set with S. pyogenes (5 strains), the MIC came out at 0.0125 µg/mL (≈ 0.0235 µM). The solubility in water entry in the data set “Solubility in water” (250 mg in distilled water 1.0 mL, indicated pH 4.3) is “not completely soluble”. The solubility in the data set “Solubility in water” (water-soluble form (NaHCO3 to pH 6.0, lyophilized)) is no less than 250 mg/mL.
